A short description of data set [1]: Stability test of Poncho combined with Eugenol, clothianidin content by HPLC. It counts as physicochemical. The settings on record: up to 54° C. for seven days. The method, then: Table 6 describes a stability test with a combination of Eugenol and Poncho evaluated at room temperature, 40° C., and 54° C. at zero time, 3 days, and 7 days as confirmed by high performance liquid chromatography (HPLC).

Data set [2] is described as follows: Stability test of Poncho 600 combined with α-terpineol, clothianidin content by HPLC. It counts as physicochemical. The settings on record: combined with alpha-terpineol, up to 54° C. for eight days. The method, then:
Table 7 describes a stability test with a combination of α-terpineol and Poncho 600 evaluated at room temperature, 40° C., and 54° C. at zero time, 2 days, and 8 days as confirmed by HPLC.

The subject of data set [3] is Honeybees. The experiment in a line: Honeybee repulsion experiment at feeding stations with 50% sucrose. The settings on record: 2% by weight in combination with 50% sucrose, feeding station. It counts as in vivo. The method, then:
FIG. 1 describes the feeding station arrangement (A and B) for the honeybee repulsion experiments described herein. As set forth in FIG. 1, panel (A) sets forth the bee cage positions on the left portion of panel (A) with the randomized feeding station positions on the right portion of panel (A). Panel (B) sets forth an alignment of the randomized feeding station positions with a distance of two meters between feeding stations. A total of eight feeding stations were evaluated at a ten meter distance in front of the respective bee hives. The feeding stations were placed two meters apart from one another.
Honeybees were trained to deep feeders (eight positions), each containing a 50% sucrose solution for one day. After the honeybees were trained to each feeder, the 50% sucrose feeder at randomized positions 1-8 was replaced with a shallow feeder containing a combination of repelling compounds and a 50% sucrose solution according to Table 5. In accordance with FIGS. 5 and 6, 2% by weight of Camphor oil (T4), Ajowan oil (T5), Camphor powder (T6), Rosemary oil (T7), and 2-Decanone (T8) in combination with a 50% sucrose treatment were added to feeders on day two.
Table 5 describes active agents evaluated for bee repulsion and their randomized feeding station positions. As described in Table 5, T1 (control), T2 (control), T3 (control), T4 (Camphor oil), T5 (Ajowan oil), T6 (Camphor powder), T7 (Rosemary oil), and T8 (2-Decanone).
FIG. 5 evaluates the number of bees visiting a respective feed station over a time interval. FIG. 6 sets forth the mean number of honeybees visiting feeding station over a period of four hours.

These results are taken from patent US20140274683A1, “COMPOSITIONS AND METHODS FOR REPELLING POLLINATING INSECTS AND PROTECTING PLANTS AND CROPS AGAINST INSECTS AND/OR NEMATODES” (Bayer CropScience LP, priority 2013, published 2014).

Consider `CN/C(=N\[N+](=O)[O-])NCc1cnc(Cl)s1` [clothianidin], for which the “Chemical stability of clothianidin content in Poncho” value in data set [1] and in data set [2] was “exhibited chemical stability” throughout.
For the compound `CCCCCCCCC(C)=O` [Compound 2-Decanone, 2-decanone], in data set [3] (4 hour assessment period), the “Honeybee repellency over the 4 hour assessment period” value is “highly repellent”. Also, the “Honeybee repellency at 24 hours” value in data set [3] is “exhibited repellency”; in data set [3] (listed as 2-decanone), “still repellent”.
